Laboratory results as given in patent US20220315567A1 (priority 2016, published 2022).
Where a name gives a salt, the structure may show the parent alone. Read-outs that look alike come from different tables or passages of the source.

Tests used:
human OPRM1 (μ, MOR) [1] = target: T1, human OPRM1 (μ, MOR) (Homo sapiens, UniProt P35372); assay: cell-based; settings: for Emax: OPRM1, read-out: cAMP Emax; for EC50: PathHunter human OPRM1 Arrestin CHO-K1 cell line, read-out: cAMP EC50
T1 construct: host or cells: CHO-K1
Experimental: G-protein signaling was measured via second messenger cAMP modulation. Detection of cAMP modulation was accomplished in the PathHunter human OPRM1 (μ, MOR) Arrestin CHO-K1 cell line using the Dynamic2 cAMP Kit from Cisbio.

human OPRM1 (μ, MOR) [2] = target: T1, human OPRM1 (μ, MOR); type: cell-based; settings: for ΔRA of compound: relative activity from EC50 and Emax of β-arrestin vs cAMP, lower RA = more G-protein biased
Experimental: In certain embodiments, the ability of a compound to activate G-protein or β-arrestin is not an on/off switch for a given pathway, but rather a continuous function. To capture this, each compound is measured for activity in cell assays that are linked to β-arrestin recruitment and G-protein signaling. By comparing the activity between these two measures (accounting for both EC50 and maximal response reached, Emax) a relative activity (RA) value is determined.
In the case of MOR it is desirable to have high activation of the G-protein pathway while reducing activation of β-arrestin. In the case of the formula above, this means a lower RA.

human OPRM1 (μ, MOR) [3] = target: T1, human OPRM1 (μ, MOR); assay: cell-based; settings: for Emax: OPRM1, read-out: β-Arrestin Emax; for EC50: PathHunter human OPRM1 Arrestin CHO-K1 cell line, read-out: β-Arrestin EC50
Experimental: The Discoverx PathHunter® β-Arrestin assay is used to measure β-arrestin-2 activity. The technology is based on Enzyme Fragment Complementation (EFC) with β-galactosidase (β-Gal) as the reporter. […] EA is fused to Q-arrestin-2, and ED is fused to the C-terminus of the GPCR of interest. When a ligand binds and the GPCR is activated, Q-arrestin-2 is recruited to the receptor resulting in an ED/EA complementation, restoring f-Gal activity, which is measured using chemiluminescence. For this assay, the PathHunter human OPRM1 (μ, MOR) Arrestin CHO-K1 cell line was used.

T1 sequence (P35372 whole entry): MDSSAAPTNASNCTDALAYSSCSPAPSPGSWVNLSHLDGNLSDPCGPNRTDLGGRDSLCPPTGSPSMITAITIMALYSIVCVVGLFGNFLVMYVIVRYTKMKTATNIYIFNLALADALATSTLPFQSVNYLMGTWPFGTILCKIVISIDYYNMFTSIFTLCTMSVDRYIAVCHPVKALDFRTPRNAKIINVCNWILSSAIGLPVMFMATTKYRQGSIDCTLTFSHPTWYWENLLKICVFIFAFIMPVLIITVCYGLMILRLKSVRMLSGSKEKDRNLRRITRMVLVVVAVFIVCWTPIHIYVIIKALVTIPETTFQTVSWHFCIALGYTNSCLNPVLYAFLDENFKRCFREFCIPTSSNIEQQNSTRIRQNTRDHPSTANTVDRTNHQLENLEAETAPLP

Row | Compound | Emax (human OPRM1 (μ, MOR) [1]) | EC50 (human OPRM1 (μ, MOR) [1]) | Bias Factor (ΔRA of compound relative to ΔRA of DAMGO) × 10 (human OPRM1 (μ, MOR) [2]) | ΔRA of compound (human OPRM1 (μ, MOR) [2]) | Emax (human OPRM1 (μ, MOR) [3]) | EC50 (human OPRM1 (μ, MOR) [3]) | cAMP Emax (human OPRM1 (μ, MOR) [1]) | β-Arrestin Emax (human OPRM1 (μ, MOR) [3])
1 | CN(C)[C@@H](CCNC(=O)N1Cc2ccc(F)cc2C1)c1ccsc1 [Compound 30-S, (S)—N-(3-(Dimethylamino)-3-(thiophen-3-yl)propyl)-5-fluoroisoindoline-2-carboxamide] | 96.1% | 688 nM | <−14.83 | <−2.96 | 9.9% | > 100000 nM | – | –
2 | CN(C)C(CNC(=O)N1Cc2ccccc2C1)c1ccsc1 (centres unmarked) [Compound 1a, N-(2-(Dimethylamino)-2-(thiophen-3-yl)ethyl)isoindoline-2-carboxamide hydrochloride] | 69.2% | 20 nM | −5.75 | −2.06 | 5.67% | 186 nM | – | –
3 | CN(C)C1(CNC(=O)N2Cc3ccc(F)cc3C2)CCCC1 [Compound 63] | 87.9% | 2510 nM | <−14.83 | <−2.96 | < 1% | > 100000 nM | – | –
4 | CN(C)C(CNC(=O)N1Cc2ccc(F)cc2C1)c1ccccc1 (centres unmarked) [Compound 20a, N-(2-(Dimethylamino)-2-phenylethyl)-5-fluoroisoindoline-2-carboxamide hydrochloride] | 70.8% | 31 nM | <−14.83 | <−2.96 | 3.65% | > 100000 nM | – | –
5 | CN(C)C(CNC(=O)N(C)[C@H]1CCCc2ccccc21)c1ccsc1 (some centres unmarked) [Compound 39] | 93.4% | 118 nM | −1.90 | −1.67 | 10.9% | 644 nM | – | –
6 | CN(C)C(CNC(=O)N1CC[C@@H](c2ccccc2)C1)c1ccsc1 (some centres unmarked) [Compound 41] | 9.6% | > 100000 nM | – | – | < 1% | > 100000 nM | – | –
7 | CN(C)C(CNC(=O)N[C@H]1CCc2ccccc2C1)c1ccsc1 (some centres unmarked) [Compound 52] | – | 227 nM | <−14.83 | <−2.96 | – | > 100000 nM | 12.2% | <1%
8 | CN(C)C(CNC(=O)N[C@@H]1CCc2ccccc2C1)c1ccsc1 (some centres unmarked) [Compound 47] | – | – | <−14.83 | <−2.96 | – | – | – | –
9 | CNC(CNC(=O)N1Cc2ccc(F)cc2C1)c1ccc(OC)cc1 (centres unmarked) [Compound 83] | – | 57 nM | <−14.83 | <−2.96 | – | > 100000 nM | 100.1% | 13.4%
10 | C[C@@H](NC(=O)[C@@H](N)Cc1ccc(O)cc1)C(=O)NCC(=O)N(C)[C@@H](Cc1ccccc1)C(=O)NCCO [DAMGO, H-Tyr-D-Ala-Gly-NMe-Phe-Gly-OH, reference compound] | 108% | – | – | – | 98.3% | – | – | –
11 | CN(C)C(CNC(=O)N1CCCc2ccccc21)c1ccsc1 (centres unmarked) [Compound 9a, N-(2-(dimethylamino)-2-(thiophen-3-yl)ethyl)-3,4-dihydroquinoline-1(2H)-carboxamide hydrochloride] | 75.7% | 512 nM | −6.20 | −2.10 | 5.11% | 4360 nM | – | –
12 | CNC(CNC(=O)N1Cc2ccccc2C1)c1ccccc1 (single isomer, unassigned) [Compound 38-ent-B, (+)—N-(2-(Methylamino)-2-phenylethyl)isoindoline-2-carboxamide] | – | 840 nM | <−14.83 | <−2.96 | – | > 100000 nM | 97.6% | 5.9%
13 | CN(C)C(CNC(=O)N[C@@H]1CCc2ccccc2C1)c1ccsc1 (some centres unmarked) [Compound 48] | – | – | <−14.83 | <−2.96 | – | – | – | –
14 | COc1ccc2c(c1)CN(C(=O)NCC(c1ccsc1)N(C)C)C2 (centres unmarked) [Compound 5a, N-(2-(Dimethylamino)-2-(thiophen-3-yl)ethyl)-5-methoxyisoindoline-2-carboxamide hydrochloride] | 5% | > 100000 nM | – | – | < 1% | > 100000 nM | – | –
